Tests used:
[1] = molecular target: T1, truncated form of human Choline kinase α1 that includes residues 75-457 (Homo sapiens, UniProt P35790); experiment: Kinase Assay, coupled (ATP regeneration) LDH/PK assay, NADH absorbance; type: biochemical; conditions: Examples not designated with an asterisk; footnote prints version 1 of the Kinase Assay; read-out: IC50
T1 construct: made in house
Experimental: Absorbance of NADH (340 nm) was measured over 30 min using a SpectraMax M5 (Molecular Devices). Initial reaction velocity (ΔA340/Δt) was calculated and plotted as a function of inhibitor concentration in a 2-fold dilution series. IC50 values were obtained by fitting the relative velocities to a dose-response model.

ChoKα protein = molecular target: T2, ChoKα protein (Homo sapiens, UniProt P35790); experiment: Binding affinity by surface plasmon resonance (SensiQ Pioneer, FastStep); conditions: SPR, 1:1 binding model, upper concentration 500 nM; read-out: Kd
T2 construct: made in house
Experimental: KD may be measured using surface plasmon resonance (BIAcore®) technology, see, e.g., Panayotou et al, Mol. Cell. […] ChoKα protein was immobilized by standard amine coupling methods on a COOH5 sensor chip installed in a SensiQ Pioneer system. Sensograms were measured using the FastStep™ screen method with an upper concentration of 500 nM. Kinetics and affinity were obtained from fits using a 1:1 binding model.

T2 sequence (P35790 75-457): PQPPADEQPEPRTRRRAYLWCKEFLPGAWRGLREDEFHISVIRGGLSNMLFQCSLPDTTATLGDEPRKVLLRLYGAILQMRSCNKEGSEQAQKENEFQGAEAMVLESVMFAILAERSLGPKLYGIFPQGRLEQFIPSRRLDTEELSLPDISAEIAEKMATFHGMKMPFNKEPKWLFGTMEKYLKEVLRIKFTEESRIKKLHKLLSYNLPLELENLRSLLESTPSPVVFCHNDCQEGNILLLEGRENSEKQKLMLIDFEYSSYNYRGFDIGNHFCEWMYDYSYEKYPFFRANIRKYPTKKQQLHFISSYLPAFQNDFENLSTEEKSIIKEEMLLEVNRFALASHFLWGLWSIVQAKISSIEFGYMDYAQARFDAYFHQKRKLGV
T1 sequence (P35790 75-457): as above

| IC50 [1] [nM] | Kd (ChoKα protein) [nM] | Structure (SMILES) |
| --- | --- | --- |
| < 200 | < 200 | CNC(=O)c1ccc(-c2ccc(CN3CCCN(C)CC3)cc2C#N)cc1 [Example 29, 2′-cyano-N-methyl-4′-((4-methyl-1,4-diazepan-yl)methyl)-[1,1′-biphenyl]-4-carboxamide] |
| < 100 | < 50 | CN(C)CCCNC(=O)c1ccc(-c2ccc(CN3CCCN(C)CC3)cc2C#N)cc1 [Example 30, 2′-cyano-N-(3-(dimethylamino)propyl)-4′-((4-methyl-1,4-diazepan-1-yl)methyl)-[1,1′-biphenyl]-4-carboxamide] |
| < 100 | < 50 | CN1CCCN(Cc2ccc(-c3ccc(CNS(C)(=O)=O)cc3)c(C#N)c2)CC1 [Example 48, N-((2′-cyano-4′-((4-methyl-1,4-diazepan-1-yl)methyl)-[1,1′-biphenyl]-4-yl)methyl)methanesulfonamide] |
| < 200 | < 60000 | Cc1cc(CN2CCCN(C)CC2)ccc1-c1ccc(CO)cc1 [Example 51, (2′-methyl-4′-((4-methyl-1,4-diazepan-1-yl)methyl)-[1,1′-biphenyl]-4-yl)methanol] |
| < 100 | < 100 | CN1CCCN(Cc2ccc(-c3ccc(CN4CCCN(C)CC4)cc3[N+](=O)[O-])cc2)CC1 [Example 57, 4,4′-((2-nitro-[1,1′-biphenyl]-4,4′-diyl)bis(methylene))bis(1-methyl-1,4-diazepane)] |
| < 200 | < 200 | CN1CCCN(Cc2ccc(-c3ccc(C(=O)N4CCCN(C)CC4)cc3C#N)c(C#N)c2)CC1 [Example 63, 4-((4-methyl-1,4-diazepan-1-yl)methyl)-4′-(4-methyl-1,4-diazepane-1-carbonyl)-[1,1′-biphenyl]-2,2′-dicarbonitrile] |
| < 200 | < 60000 | CN1CCCN(Cc2ccc(-c3ccc(C(=O)N4CCCN(C)CC4)cc3N)c(C#N)c2)CC1 [Example 64, 2′-amino-4-((4-methyl-1,4-diazepan-1-yl)methyl)-4′-(4-methyl-1,4-diazepane-1-carbonyl)-[1,1-biphenyl]-2-carbonitrile] |
| < 100 | < 50 | CN1CCCN(Cc2ccc(-c3ccc(C(=O)N4CCCN(C)CC4)cc3-c3ccc(O)cc3)c(C#N)c2)CC1 [Example 69, 4″-hydroxy-4-((4-methyl-1,4-diazepan-1-yl)methyl)-4′-(4-methyl-1,4-diazepane-1-carbonyl)-[1,1′:2′,1″-terphenyl]-2-carbonitrile] |
| < 100 | < 100 | CN1CCCN(Cc2ccc(-c3ccc(C(=O)N4CCCN(C)CC4)cc3-c3cn[nH]c3)c(C#N)c2)CC1 [Example 71, 4-((4-methyl-1,4-diazepan-1-yl)methyl)-4′-(4-methyl-1,4-diazepane-1-carbonyl)-2′-(1H-pyrazol-4-yl)-[1,1′-biphenyl]-2-carbonitrile] |
| < 200 | < 200 | CN1CCCN(Cc2ccc(-c3ccc(C(=O)N4CCCN(C)CC4)cc3-c3ccncc3)c(C#N)c2)CC1 [Example 72, 4-((4-methyl-1,4-diazepan-1-yl)methyl)-4′-(4-methyl-1,4-diazepane-1-carbonyl)-2′-(pyridin-4-yl)-[1,1′-biphenyl]-2-carbonitrile] |
| < 100 | < 50 | CN1CCCN(Cc2ccc(-c3ccc(C(=O)N4CCCN(C)CC4)cc3-c3cccc([N+](=O)[O-])c3)c(C#N)c2)CC1 [Example 77, 4-((4-methyl-1,4-diazepan-1-yl)methyl)-4′-(4-methyl-1,4-diazepane-1-carbonyl)-3″-nitro-[1,1′:2′,1″-terphenyl]-2-carbonitrile] |
| < 100 | < 50 | CN1CCCN(Cc2ccc(-c3ccc(C(=O)N4CCCN(C)CC4)cc3-c3cc(F)cc(F)c3)c(C#N)c2)CC1 [Example 78, 3″,5″-difluoro-4-((4-methyl-1,4-diazepan-1-yl)methyl)-4′-(4-methyl-1,4-diazepane-1-carbonyl)-[1,1′:2′,1″-terphenyl]-2-carbonitrile] |
| < 100 | < 50 | CCOc1ccc(-c2cc(C(=O)N3CCCN(C)CC3)ccc2-c2ccc(CN3CCCN(C)CC3)cc2C#N)cc1 [Example 79, 4″-ethoxy-4-((4-methyl-1,4-diazepan-1-yl)methyl)-4′-(4-methyl-1,4-diazepane-1-carbonyl)-[1,1′1:2′,1″-terphenyl]-2-carbonitrile] |
| < 100 | < 50 | CN1CCCN(Cc2ccc(-c3ccc(C(=O)N4CCCN(C)CC4)cc3-c3ccc(CN4CCOCC4)cc3)c(C#N)c2)CC1 [Example 80, 4-((4-methyl-1,4-diazepan-1-yl)methyl)-4′-(4-methyl-1,4-diazepane-1-carbonyl)-4″-(morpholinomethyl)-[1,1′:2′,1″-terphenyl]-2-carbonitrile] |
| < 100 | < 50 | COc1ccc(-c2cc(C(=O)N3CCCN(C)CC3)ccc2-c2ccc(CN3CCCN(C)CC3)cc2C#N)cc1OC [Example 81, 3″,4″-dimethoxy-4-((4-methyl-1,4-diazepan-1-yl)methyl)-4′-(4-methyl-1,4-diazepane-1-carbonyl)-[1,1′1:2′,1″-terphenyl]-2-carbonitrile] |
| < 100 | < 100 | CN1CCCN(Cc2ccc(-c3ccc(S(=O)(=O)N4CCN(C)CC4)cc3)c(C#N)c2)CC1 [Example 84, 4-((4-methyl-1,4-diazepan-1-yl)methyl)-4′-((4-methylpiperazin-1-yl)sulfonyl)-[1,1′-biphenyl]-2-carbonitrile] |
| < 100 | < 100 | CN1CCCN(Cc2ccc(-c3ccc(S(=O)(=O)NCCO)cc3)c(C#N)c2)CC1 [Example 85, 2′-cyano-N-(2-hydroxyethyl)-4′-((4-methyl-1,4-diazepan-1-yl)methyl)-[1,1′-biphenyl]-4-sulfonamide] |
| < 200 | < 200 | CN1CCCN(Cc2ccc(-c3ccc(S(=O)(=O)N4CCOCC4)cc3)c(C#N)c2)CC1 [Example 88, 4-((4-methyl-1,4-diazepan-1-yl)methyl)-4′-(morpholinosulfonyl)-[1,1′-biphenyl]-2-carbonitrile] |
| < 200 | < 200 | CN1CCCN(Cc2ccc(-c3ccc(NC(N)=O)cc3)c(C#N)c2)CC1 [Example 90, 1-(2′-cyano-4′-((4-methyl-1,4-diazepan-1-yl)methyl)-[1,1′-biphenyl]-4-yl)urea] |
| < 200 | < 200 | CN1CCCN(Cc2ccc(-c3ccc(C(=O)NN)cc3)c(C#N)c2)CC1 [Example 91, 2′-cyano-4′-((4-methyl-1,4-diazepan-1-yl)methyl)-[1,1′-biphenyl]-4-carbohydrazide] |
| < 200 | < 60000 | CN1CCCN(Cc2ccc(-c3ccc(CC#N)cc3)c(C#N)c2)CC1 [Example 93, 4′-(cyanomethyl)-4-((4-methyl-1,4-diazepan-1-yl)methyl)-[1,1′-biphenyl]-2-carbonitrile] |
| < 200 | < 200 | CN1CCCN(Cc2ccc(-c3ccc(S(C)(=O)=O)cc3)c(C#N)c2)CC1 [Example 94, 4-((4-methyl-1,4-diazepan-1-yl)methyl)-4′-(methylsulfonyl)-[1,1′-biphenyl]-2-carbonitrile] |
| < 200 | < 200 | CNS(=O)(=O)c1ccc(-c2ccc(CN3CCCN(C)CC3)cc2C#N)c(C)c1 [Example 97, 2′-cyano-N,2-dimethyl-4′-((4-methyl-1,4-diazepan-1-yl)methyl)-[1,1′-biphenyl]-4-sulfonamide] |
